Where two headings read alike, the source gives them in different places.
Assays:
[1] = test system: E. coli, K. pneumoniae, P. aeruginosa A. baumannii and E. cloacae; experiment: Effects of body fluids on MIC, all tested isolates; type: cell-based, Gram-negatives clinical isolates
Procedure: Objective: The combinations of meropenem (MEM) in the presence of different concentrations of avibactam (AVI) and EDTA were tested. The triple combination test compounds were investigated for in-vitro activity in presence cation-adjusted Mueller Hinton broth (CA-MHB) and CA-MHB supplemented with different body fluids i.e. human serum (25% and 50%), pooled urine (25% and 50%), bovine Surfactant (1 and 5%) and human peritoneal fluid (25 and 50%) against the a set of Gram-negatives clinical isolates from India.
Method: The tolerance screening was performed on a total of 60 isolates to ascertain tolerance to body fluids and total 19 isolates including ATCC strains and non-duplicate clinically relevant Escherichia coli (n=6), Klebsiella pneumoniae (n=3), Pseudomonas aeruginosa (n=6) Acinetobacter baumannii (n=3) and Enterobacter cloacae (n=1) were selected prior to susceptibility testing. Tested compounds included Meropenem with AVI at 4 and EDTA at 10 mM (MEM/A4/E10), Meropenem with AVI at 4 and EDTA at 20 mM (MEM/A4/E20), Meropenem with AVI at 8 and EDTA at 10 mM (MEM/A8/E10), Meropenem with AVI at 8 and EDTA at 20 mM (MEM/A8/E20), Meropenem (MEM), Ceftriaxone with sulbactam at […] and EDTA at 10 mM (CRO/S10/E10), Ceftazidime-avibactam (CZA), Amikacin (AMK), Tigecycline and Minocycline. […]

[2] = test system: all grouped isolates from India; experiment: MIC by broth microdilution against all grouped isolates from India; type: cell-based, resistant bacterial strains
Procedure: (§1) In a typical study MIC tests were performed by broth microdilution in line with CLSI susceptibility testing standards. Bacterial inocula were prepared at ca. 1×10^6 CFU/mL by diluting 100-fold a 0.5 McFarland suspension in CA-MHB with TES. Microtiter plate wells containing 50 μL of antibacterial solutions at 2×the final concentrations were diluted 2-fold with 50 μL of inoculum to give a final inoculum of ca. 5×10^5 CFU/mL and desired test concentrations of antibacterial agents. Test microtiter plates were incubated according to CLSI guidelines and read visually. MIC values corresponded to the first well with no visible growth.
There was a marked improvement in antibacterial activity, compared to MEM alone, observed for the triple combinations, for MEM/AVI [4 mg/L]/EDTA [10 mM] and MEM/AVI [4 mg/L]/EDTA [20 mM], the reduction in MIC90 was 0.06 μg/mL and ≤0.002 μg/mL, respectively.

[3] = test system: Enterobacterales isolates from India; experiment: MIC by broth microdilution against Enterobacterales; type: cell-based, Enterobacteriaceae
Procedure: as §1
The results of antibacterial activity of amikacin, Ceftazidime-avibactam, Ceftriaxone with sulbactam and EDTA, Meropenem and Meropenem with avibactam and EDTA against highly resistant strains of Enterobacteriaceae are given in Table 2.

C[C@@H](O)[C@H]1C(=O)N2C(C(=O)O)=C(S[C@@H]3CN[C@H](C(=O)N(C)C)C3)[C@H](C)[C@H]12 [Meropenem, (4R,5S,6S)-3-(((3S,5S)-5-(dimethylcarbamoyl)pyrrolidin-3-yl)thio)-6-((R)-1-hydroxyethyl)-4-methyl-7-oxo-1-azabicyclo[3.2.0]hept-2-ene-2-carboxylic acid]
MIC [1]: > 32 µg/mL | MIC50 [2]: > 32 µg/mL | MIC90 [2]: > 32 µg/mL | MIC90 ([2]; MEM-NS isolates (n=534)): > 32 µg/mL | MIC50 ([2]; all grouped isolates (606)): >32 µg/mL | MIC90 ([2]; all grouped isolates (606)): > 32 µg/mL | MIC50 [3]: > 32 µg/mL | MIC90 [3]: > 32 µg/mL | isolates resistant to meropenem (MEM NS) ([3]; 250 out of 301): 82.7% | MIC50 ([3]; MEM-NS isolates (n=250)): > 32 µg/mL | MIC90 ([3]; MEM-NS isolates (n=250)): > 32 µg/mL | MIC50 ([3]; n=301): >32 µg/mL | MIC90 ([3]; n=301): >32 µg/mL

Source: patent publication US20260294871A1, “PHARMACEUTICAL COMBINATIONS AND COMPOSITIONS THEREOF COMPRISING ANTIBACTERIAL AGENTS” (priority 2023, published 2026)
